≈ marks a conversion by molar mass, not a printed value. Like-named read-outs stand apart in the source and are kept apart here. Marks after values point to notes of the source that are not given here.
What was measured:
P. aeruginosa ATCC 35151 = assay: MIC by micro-liquid dilution method (CLSI); type: cell-based; details: Pseudomonas aeruginosa; P. aeruginosa ATCC35151; read-out: MIC
[1] = test system: K. pneumoniae ATCC BAA-205 (TEM-1/SHV-1/SHV-12); assay: MIC by micro-liquid dilution method (CLSI); type: cell-based, Klebsiella pneumonia; details: Klebsiella pneumoniae, ATCCBAA205; K. pneumoniae ATCCBAA-205; read-out: MIC
E. coli ATCC 25922 = assay: MIC by micro-liquid dilution method (CLSI); type: cell-based; details: Escherichia coli; E. coli ATCC25922; read-out: MIC
[2] = test system: K. pneumoniae ATCC BAA-2470 (NDM-1); assay: MIC by micro-liquid dilution method (CLSI); type: cell-based, Klebsiella pneumonia; details: Klebsiella pneumoniae, ATCCBAA2470; K. pneumoniae ATCCBAA-2470; read-out: MIC
[3] = test system: K. pneumoniae ATCC BAA-1705 (KPC-2); assay: MIC by micro-liquid dilution method (CLSI); type: cell-based, Klebsiella pneumonia; details: Klebsiella pneumoniae, ATCCBAA1705; K. pneumoniae ATCCBAA-1705; read-out: MIC
[4] = test system: E. coli NCTC 13476 (IMP-1 type); assay: MIC by micro-liquid dilution method (CLSI); type: cell-based; details: Escherichia coli; E. coli NCTC13476; read-out: MIC
From the text: (§1) Three strains of Klebsiella pneumonia, K. pneumoniae ATCC BAA-205 (TEM-1/SHV-1/SHV-12), K. pneumoniae ATCC BAA-1705 (KPC-2), K. pneumoniae ATCC BAA-2470 (NDM-1); three strains of Pseudomonas aeruginosa, P. aeruginosa NCTC13437 (VIM-10; VEB-1), P. aeruginosa PA 14 and P. aeruginosa ATCC 35151; four strains of Escherichia coli, E. coli NCTC 13476 (IMP-1 type), E. coli ATCC BAA-2523 (OXA-48), E. coli MG1655Δtol C, E. coli ATCC 25922; one strain of Acinetobacter baumannii, A. baumannii ATCC 17978 and one strain of Staphylococcus aureus, S. aureus NRS384 were used to determine the minimum inhibitory concentration (MIC) of the compounds by micro-liquid dilution method according to the Institute of Clinical and Laboratory Standard (CLSI) requirements.

P. aeruginosa PA 14 = assay: MIC by micro-liquid dilution method (CLSI); type: cell-based; details: Pseudomonas aeruginosa, PA14; P. aeruginosa PA 14; read-out: MIC
From the text: as §1

E. coli MG1655Δtol C = assay: MIC by micro-liquid dilution method (CLSI); type: cell-based; details: Escherichia coli
From the text: as §1

[5] = test system: E. coli ATCC BAA-2523 (OXA-48); assay: MIC by micro-liquid dilution method (CLSI); type: cell-based; details: Escherichia coli, ATCCBAA2523; E. coli ATCCBAA-2523; read-out: MIC
From the text: as §1

A. baumannii ATCC 17978 = assay: MIC by micro-liquid dilution method (CLSI); type: cell-based; details: Acinetobacter baumannii; A. baumannii ATCC17978; read-out: MIC
[6] = test system: Acinetobacter baumannii ATCC-BAA-1789; assay: MIC on Acinetobacter baumannii strains; type: cell-based; details: ATCCBAA1789
From the text: (§2) Twelve strains of Acinetobacter baumannii, A. baumannii ATCC 17978 (ATCC-BAA-1605, ATCC-BAA-1789, ATCC-BAA-1790, ATCC-BAA-1791, ATCC-BAA-1792, ATCC-BAA-1793, ATCC-BAA-1794, ATCC-BAA-1795, ATCC-BAA-1799, ATCC-BAA-1800, ATCC 19606, ATCC 17978) were used to determine the minimum inhibitory concentration (MIC) of the compounds by micro-liquid dilution method according to the Institute of Clinical and Laboratory Standard (CLSI) requirements.

[7] = test system: Acinetobacter baumannii ATCC-BAA-1800; assay: MIC on Acinetobacter baumannii strains; type: cell-based
From the text: as §2

[8] = test system: Acinetobacter baumannii ATCC-BAA-1799; assay: MIC on Acinetobacter baumannii strains; type: cell-based; details: ATCCBAA1799, ATCC-BAA-1799, read-out: MIC
From the text: as §2

[9] = test system: Acinetobacter baumannii ATCC-BAA-1793; assay: MIC on Acinetobacter baumannii strains; type: cell-based
From the text: as §2

[10] = test system: Acinetobacter baumannii ATCC 19606; assay: MIC on Acinetobacter baumannii strains; type: cell-based; details: ATCC19606
From the text: as §2

[11] = test system: Acinetobacter baumannii ATCC-BAA-1605; assay: MIC on Acinetobacter baumannii strains; type: cell-based; details: ATCCBAA1605, ATCC-BAA-1605, read-out: MIC
From the text: as §2

[12] = test system: Acinetobacter baumannii ATCC-BAA-1792; assay: MIC on Acinetobacter baumannii strains; type: cell-based; details: ATCCBAA1792, ATCC-BAA-1792, read-out: MIC
From the text: as §2

[13] = test system: Acinetobacter baumannii ATCC-BAA-1790; assay: MIC on Acinetobacter baumannii strains; type: cell-based; details: ATCCBAA1790, ATCC-BAA-1790, read-out: MIC
From the text: as §2

[14] = test system: Acinetobacter baumannii ATCC-BAA-1795; assay: MIC on Acinetobacter baumannii strains; type: cell-based; details: ATCCBAA1795
From the text: as §2

[15] = test system: Acinetobacter baumannii ATCC-BAA-1791; assay: MIC on Acinetobacter baumannii strains; type: cell-based; details: ATCCBAA1791
From the text: as §2

[16] = test system: Acinetobacter baumannii ATCC 17978; assay: MIC on Acinetobacter baumannii strains; type: cell-based; details: ATCC17978
From the text: as §2

[17] = test system: Acinetobacter baumannii ATCC-BAA-1794; assay: MIC on Acinetobacter baumannii strains; type: cell-based; details: ATCCBAA1794, ATCC-BAA-1794, read-out: MIC
From the text: as §2

[18] = test system: Pseudomonas aeruginosa PA14; assay: Lungs of immunosuppressed mice infected with Pseudomonas aeruginosa (2), lung bacterial load; type: in vivo; details: 24 hours after infection, total dosage 60 mg/kg, day, ip at 2 h, 4 h, 6 h, 8 h
Experimental: Pseudomonas aeruginosa PA14. 60 mice were intraperitoneally injected with 150 mg/kg cyclophosphamide on day 1 and day 4 to give immunosuppressed mice. […] [table] The mice were injected with 50 μL of bacterial solution (2×10^3 CFU) through the airway. 2 hours after the infection, 4 mice in the model group was sacrificed by removing cervical vertebra. Two hours after infection, the drugs were administered by groups, and the mice were administered intraperitoneally once at 2 hours, 4 hours, 6 hours, and 8 hours, a total of 4 times. Mice of each group were sacrificed by removing cervical vertebra 24 hours after infection, lung and kidney tissues were taken aseptically and put into a sterilized tissue homogenate tube, weighed, and an appropriate amount of normal saline (NS) was added, the mixture was homogenized by a homogenizer for 1 min, the lung tissues of the model group were diluted 10^4, 10^5, 10^6 times, the lung tissues of each administration group were diluted 10, 100 times, the kidney tissues of the model group were diluted 10^2, 10^3, 10^4 times, and the lung tissues of each administration group were diluted 10 times, the obtained mixtures were coated on TSA plates using spiral coater, then incubated at 37° C. overnight, and the CFU was counted with a colony counter. Graphpad Prism mapping software was used to make scatter plots of lung tissue CFU. SPSS19.0 software was used to count CFU and average body weight, and analysis of variance was used to analyze differences between groups.

[19] = test system: Pseudomonas aeruginosa PA14; assay: Lungs of immunosuppressed mice infected with Pseudomonas aeruginosa (1), lung bacterial load; type: in vivo; details: 24 hours after infection, day, ip at 2 h, 4 h, 6 h, 8 h
Experimental: Pseudomonas aeruginosa PA14. 64 mice were intraperitoneally injected with 150 mg/kg cyclophosphamide on the first day and the fourth day to give immunosuppressed mice. […] [table] The mice were injected with 50 μL of bacterial solution (2×10^3 CFU) through the airway. 2 hours after the infection, 4 mice in the model group was sacrificed by removing cervical vertebra. Two hours after infection, the drugs were administered by groups, and the mice were administered intraperitoneally once at 2 hours, 4 hours, 6 hours, and 8 hours, a total of 4 times. Mice of each group were sacrificed by removing cervical vertebra 24 hours after infection, lung and kidney tissues were taken aseptically and put into sterilized tissue homogenate tubes, weighed, and an appropriate amount of normal saline (NS) was added, the mixture was homogenized by a homogenizer for 1 min, the lung tissues of the model group were diluted 10^4, 10^5, 10^6 times, the lung tissues of each administration group were diluted 10, 100 times, the kidney tissues of the model group were diluted 10^2, […], 10^4 times, and the lung tissues of each administration group were diluted 10 times, the obtained mixtures were coated on TSA plates using spiral coater, then incubated at 37° C. overnight, and the CFU was counted with a colony counter. Graphpad Prism mapping software was used to make scatter plots of lung tissue CFU. SPSS19.0 software was used to count CFU and average body weight, and analysis of variance was used to analyze differences between groups.

[20] = ATCCBAA1800, ATCC-BAA-1800, read-out: MIC
[21] = ATCCBAA1793, ATCC-BAA-1793, read-out: MIC

Structure (SMILES)	MIC (P. aeruginosa ATCC 35151)	MIC [1]	MIC (E. coli ATCC 25922)	MIC [2]	MIC [3]	MIC [4]	MIC (P. aeruginosa PA 14)	MIC (E. coli MG1655Δtol C)	MIC [5]	MIC (A. baumannii ATCC 17978)	MIC [6]	MIC [8]	MIC [10]	MIC [11]	MIC [12]	MIC [13]	MIC [14]	MIC [15]	MIC [16]	MIC [17]	also measured
CC1(C)[C@H](NC(=O)/C(=N\OCCOc2ccc3c(c2)CCN(CCCN)C3)c2csc(N)n2)C(=O)N1OS(=O)(=O)O [Compound 6]	0.5 µg/mL (≈ 0.817 µM)	16 µg/mL (≈ 26.2 µM)	0.5 µg/mL (≈ 0.817 µM)	4 µg/mL (≈ 6.54 µM)	4 µg/mL (≈ 6.54 µM)	1 µg/mL (≈ 1.63 µM)	16 µg/mL (≈ 26.2 µM)	≤ 0.125 µg/mL	0.25 µg/mL (≈ 0.409 µM)	4 µg/mL (≈ 6.54 µM)	8 µg/mL (≈ 13.1 µM)	8 µg/mL (≈ 13.1 µM)	8 µg/mL (≈ 13.1 µM)	16 µg/mL (≈ 26.2 µM)	8 µg/mL (≈ 13.1 µM)	8 µg/mL (≈ 13.1 µM)	8 µg/mL (≈ 13.1 µM)	4 µg/mL (≈ 6.54 µM)	2 µg/mL (≈ 3.27 µM)	8 µg/mL (≈ 13.1 µM)	MIC [7, 20]: 8 µg/mL (≈ 13.1 µM); MIC [9, 21]: 8 µg/mL (≈ 13.1 µM)
CC1(C)[C@H](NC(=O)/C(=N\OCCOc2ccc3c(c2)CCN(CCCNC(=N)N)C3)c2csc(N)n2)C(=O)N1OS(=O)(=O)O [Compound 7]	0.5 µg/mL (≈ 0.765 µM)	8 µg/mL (≈ 12.2 µM)	0.5 µg/mL (≈ 0.765 µM)	2 µg/mL (≈ 3.06 µM)	4 µg/mL (≈ 6.12 µM)	1 µg/mL (≈ 1.53 µM)	16 µg/mL (≈ 24.5 µM)	≤ 0.125 µg/mL	0.25 µg/mL (≈ 0.382 µM)	1 µg/mL (≈ 1.53 µM)	8 µg/mL (≈ 12.2 µM)	8 µg/mL (≈ 12.2 µM)	8 µg/mL (≈ 12.2 µM)	8 µg/mL (≈ 12.2 µM)	8 µg/mL (≈ 12.2 µM)	8 µg/mL (≈ 12.2 µM)	4 µg/mL (≈ 6.12 µM)	2 µg/mL (≈ 3.06 µM)	2 µg/mL (≈ 3.06 µM)	4 µg/mL (≈ 6.12 µM)	MIC [7, 20]: 4 µg/mL (≈ 6.12 µM); MIC [9, 21]: 4 µg/mL (≈ 6.12 µM)
CC1(C)[C@H](NC(=O)/C(=N\O[C@@H](COc2ccc(C(=N)N[C@@H]3CCCNC3)cc2)C(=O)O)c2csc(N)n2)C(=O)N1OS(=O)(=O)O [I-g, reference compound]	–	–	–	–	–	–	–	–	–	–	–	–	–	–	–	–	–	–	–	–	LOG10-of bacterial load [18]: 1.65 ± 1.39; LOG10-of bacterial load ([19]; total dosage 120 mg/kg): 1.58 ± 2.45; LOG10-of bacterial load ([19]; total dosage 200 mg/kg): 0**
C[C@@H](O)[C@H]1C(=O)N2C(C(=O)O)=C(SCCN=CN)C[C@H]12 [Imipenem, reference compound]	–	–	–	–	–	–	–	–	–	–	16 µg/mL (≈ 53.4 µM)	64 µg/mL (≈ 214 µM)	0.5 µg/mL (≈ 1.67 µM)	32 µg/mL (≈ 107 µM)	64 µg/mL (≈ 214 µM)	64 µg/mL (≈ 214 µM)	1 µg/mL (≈ 3.34 µM)	32 µg/mL (≈ 107 µM)	0.25 µg/mL (≈ 0.835 µM)	32 µg/mL (≈ 107 µM)	MIC ([7]; ATCCBAA1800): 128 µg/mL (≈ 428 µM); MIC ([9]; ATCCBAA1793): 128 µg/mL (≈ 428 µM)
